From paper PMC10192568, “Comparison of pharmacokinetic profiles of seven major bioactive components in normal and non-alcoholic fatty liver disease (NAFLD) rats after oral administration of Ling-Gui-Zhu-Gan decoction by UPLC-MS/MS” (Frontiers in Pharmacology, 2023)
Where two headings read alike, the source gives them in different places.

Key:
[1] = Stability of the seven components in rat plasma QC samples; assay type: physicochemical; conditions: n = 6; for Stability during 24 h at 4°C, RE: auto sampler
Experimental: Stability refers to the ability of the components to retain their chemical properties in the matrix. To analyze the stability of all components in the plasma, six replicates of QC samples at three concentrations were hereby prepared under each condition. The stability of the QC samples at three concentrations was analyzed under different storage conditions: −80°C for 30 days, after three freeze–thaw cycles, and 24 h in an auto sampler at 4°C.

[2] = Pharmacokinetic study of LGZGD components in plasma of normal and NAFLD rats after oral administration (UPLC-MS/MS); assay type: in vivo, Male Sprague–Dawley rats; conditions: for AUC0-∞ value decreased / C max value decreased: NAFLD rats compared with normal rats; for AUC0-∞ value decreased / C max value decreased / MRT0-t prolonged / MRT decreased: oral LGZGD; for MRT0-t prolonged / MRT decreased: NAFLD rats compared with the normal group; for AUC(0-inf) / AUC(0-t) / Cmax / Tmax / half-life / MRT last: Sprague-Dawley, rat, plasma, male SD rats, oral LGZGD extract 23 g/kg, mean ± SD, n = 6; for MRT last: read-out: MRT0-t
Experimental: Male Sprague–Dawley rats, weighing 200–220 g, SPF grade, were purchased from Shanghai Sippr-BK laboratory animal Co. Ltd. (Shanghai, China) and raised in the Laboratory Animal Center of Shanghai University of Traditional Chinese Medicine. The rats were kept in an environmentally controlled condition: on a 12:12 h light–dark cycle (lights on at 7:00 a.m.) with regulated temperature and humidity, at a temperature of 22°C–24°C and a relative humidity of 60–65%. In the experiment, the rats in the normal group were fed a certified standard rat diet and tap water, while those in the model group were fed a high-fat diet for 8 weeks to construct the NAFLD model (high-fat diet: 2% cholesterol, 10% lard, 0.1% sodium cholate, 10% yolk powder, and 77.9% normal diet). The animal experiment program was approved by the Animal Committee of Shanghai University of Traditional Chinese Medicine (License No.: PZSHUTCM201016001).
An Agilent 1290 UPLC system was combined with an Agilent 6460 series MS/MS system (Agilent Technologies, Santa Clara, CA, United States) to quantify the analytes in the ESI-positive ionization mode. The mass spectrum conditions were as follows: a capillary voltage of 4,000 V; a gas flow rate of 10 L/min; a nebulizer of 30 psi; a gas temperature of 350°C; and a Delta EMV(+) of 200 V. Five microliters of the samples was injected into an Agilent SB-C18 column (2.1 mm × 50 mm, 1.8 μm particles). The analytes were separated using the gradient elution method, and the mobile phase was composed of water (0.05% V/V formic acid) (A) and acetonitrile (B) at a flow rate of 0.4 mL/min (0–1 min, 10–10% B; 1–5 min, 10–90% B; 5–7 min, 90–90% B; and 7–7.1 min, B 90–10%; rebalance for 2 min).
A plasma sample of 50 µL was placed in a 1.5 mL centrifuge tube with 10 µL of schisandrin (IS) solution (50 ng/mL) and mixed for 5 min. The samples were successively extracted with 500 µL of ethyl acetate and treated with 250 µL of methanol, which were then mixed for 5 min and centrifuged at 4°C for 10 min (at 18,000 rpm). All the supernatant was absorbed into another 1.5 mL centrifuge tube, dried under a gentle stream of nitrogen at 37°C, and then added with 50 µL of 50% methanol for reconstruction. After being centrifuged at 4°C for 10 min (at 18,000 rpm), 5 µL of the supernatant was extracted and injected into a chromatographic column for analysis, and the chromatograms were recorded.
The rats were randomly divided into the normal group and the model group. According to the preliminary experiment, the dose was adjusted to about eight times the normal dose ([Gu, 2020]; [Li et al., 2023]). […] The animal research program was approved by the Animal Committee of Shanghai University of Traditional Chinese Medicine. At 0, 0.083, 0.25, 0.5, 0.75, 1, 2, 4, 6, 8, 10, 12, 24, and 48 h after dosing, 150 µL blood samples were collected from the rats' orbital venous plexus into centrifuge tubes containing 10 IU of sodium heparin. After being centrifuged at 5,000 rpm (4°C) for 10 min, the plasma was transferred to 1.5 mL polypropylene tubes and stored at −80°C until the plasma samples were analyzed.
Important pharmacokinetic parameters, which included the maximum plasma concentration (C max), time to maximum concentration (T max), half-life (t 1/2), area under the curve (AUC0-t), and total area under the curve (AUC0-∞), were hereby calculated using the DAS 3.2.8 software. Meanwhile, the pharmacokinetic data of the normal and model rats were compared using the SPSS software (version 21.0). Besides, Spearman rank bivariate correlation coefficient was used to determine the correlation between AUC values and UGT1A1 and nine other transporters. All the calculated data were expressed as mean ± SD. When p < 0.05, the difference was considered significant and statistically significant; and when p < 0.01 or <0.001, the difference was considered very significant.

[3] = male, po, 23 g/kg, Model (NAFLD) group
[4] = male, po, 23 g/kg, Normal group

| Stability during 24 h at 4°C, RE ([1]; high QC level) [%] | Stability during 24 h at 4°C, RE ([1]; low QC level) [%] | Stability during 24 h at 4°C, RE ([1]; medium QC level) [%] | Three freeze–thaw cycles, RE ([1]; high QC level) [%] | −80°C for 30 days, RE ([1]; high QC level) [%] | Three freeze–thaw cycles, RE ([1]; low QC level) [%] | −80°C for 30 days, RE ([1]; low QC level) [%] | Three freeze–thaw cycles, RE ([1]; medium QC level) [%] | −80°C for 30 days, RE ([1]; medium QC level) [%] | AUC0-∞ value decreased [2] [%] | C max value decreased [2] [%] | AUC(0-inf) [2, 3] [ng·h/mL] | AUC(0-t) [2, 3] [ng·h/mL] | Cmax [2, 3] [ng/mL] | half-life [2, 3] [h] | MRT last [2, 3] [h] | AUC(0-inf) [2, 4] [ng·h/mL] | AUC(0-t) [2, 4] [ng·h/mL] | Cmax [2, 4] [ng/mL] | half-life [2, 4] [h] | Compound | other results |
| --- | --- | --- | --- | --- | --- | --- | --- | --- | --- | --- | --- | --- | --- | --- | --- | --- | --- | --- | --- | --- | --- |
| −3.7 | 8.4 | 13.9 | −11.1 | −2.6 | −0.4 | −8.0 | 0.7 | 3.6 | 58.1 | 38.3 | 4410 ± 1420 | 4330 ± 1330 | 1190 ± 352 | 6.6 ± 3.5 | 6.2 ± 1.8 | 10500 ± 1900 | 10100 ± 1770 | 1930 ± 484 | 12.8 ± 3.6 | O=C(O)/C=C/c1ccccc1 [Cinnamic acid, cinnamic acid] | Tmax [2, 3]: 0.6 ± 0.1 h; Tmax [2, 4]: 0.6 ± 0.1 h; MRT last [2, 4]: 8.2 ± 1.3 h |
| −8.9 | 5.2 | 6.7 | 2.2 | 2.6 | −0.4 | −5.2 | −7.7 | −4.9 | 50.6 | 65.0 | 26200 ± 14400 | 25600 ± 14800 | 1650 ± 1170 | 8.9 ± 4.5 | 15.6 ± 2.3 | 89600 ± 28600 | 88200 ± 27200 | 7280 ± 2080 | 6 ± 2.1 | CC1(C)[C@@H](O)CC[C@]2(C)[C@H]3C(=O)C=C4[C@@H]5C[C@@](C)(C(=O)O)CC[C@]5(C)CC[C@@]4(C)[C@]3(C)CC[C@@H]12 [Glycyrrhetinic acid, glycyrrhetinic acid] | MRT0-t prolonged [2]: 44.4%; Tmax [2, 3]: 13.2 ± 6.3 h; Tmax [2, 4]: 9.3 ± 1.6 h; MRT last [2, 4]: 10.8 ± 1.1 h |
| −3.3 | −1.6 | −5.6 | 9.7 | 2.7 | −5.9 | −1.0 | −3.7 | 1.7 | 70.8 | 77.4 | 40800 ± 25000 | 40700 ± 25100 | 2240 ± 1200 | 5.4 ± 1.4 | 16 ± 8 | 82700 ± 10000 | 81000 ± 10500 | 6420 ± 2240 | 6.3 ± 3 | CC1(C)[C@@H](O[C@H]2O[C@H](C(=O)O)[C@@H](O)[C@H](O)[C@H]2O[C@@H]2O[C@H](C(=O)O)[C@@H](O)[C@H](O)[C@H]2O)CC[C@]2(C)[C@H]3C(=O)C=C4[C@@H]5C[C@@](C)(C(=O)O)CC[C@]5(C)CC[C@@]4(C)[C@]3(C)CC[C@@H]12 [Glycyrrhizic acid, glycyrrhizic acid] | Tmax [2, 3]: 8.1 ± 4.9 h; Tmax [2, 4]: 10.4 ± 1.7 h; MRT last [2, 4]: 13.7 ± 3.3 h |

Continued, compound first:

| Compound | Stability during 24 h at 4°C, RE ([1]; high QC level) [%] | Stability during 24 h at 4°C, RE ([1]; low QC level) [%] | Stability during 24 h at 4°C, RE ([1]; medium QC level) [%] | Three freeze–thaw cycles, RE ([1]; high QC level) [%] | −80°C for 30 days, RE ([1]; high QC level) [%] | Three freeze–thaw cycles, RE ([1]; low QC level) [%] | −80°C for 30 days, RE ([1]; low QC level) [%] | Three freeze–thaw cycles, RE ([1]; medium QC level) [%] | −80°C for 30 days, RE ([1]; medium QC level) [%] | AUC0-∞ value decreased [2] [%] | C max value decreased [2] [%] | AUC(0-inf) [2, 3] [ng·h/mL] | AUC(0-t) [2, 3] [ng·h/mL] | Cmax [2, 3] [ng/mL] | half-life [2, 3] [h] | MRT last [2, 3] [h] | AUC(0-inf) [2, 4] [ng·h/mL] | AUC(0-t) [2, 4] [ng·h/mL] | Cmax [2, 4] [ng/mL] | half-life [2, 4] [h] | other results |
| --- | --- | --- | --- | --- | --- | --- | --- | --- | --- | --- | --- | --- | --- | --- | --- | --- | --- | --- | --- | --- | --- |
| C=C1CCC[C@]2(C)C[C@]3(O)OC(=O)C(C)=C3C[C@@H]12 [Atractylenolide III, atractylenolide III] | −4.0 | 6.4 | 5.2 | −3.8 | 14.1 | 13.3 | −4.4 | −9.5 | −3.5 | 70.8 | 35.2 | 166 ± 45.1 | 117 ± 16.1 | 7.9 ± 1.3 | 18.3 ± 1.3 | 19.3 ± 2.9 | 568 ± 235 | 352 ± 21.5 | 12.2 ± 3.4 | 10.2 ± 4.4 | MRT0-t prolonged [2]: 31.3%; Tmax [2, 3]: 0.6 ± 0.1 h; Tmax [2, 4]: 0.7 ± 0.1 h; MRT last [2, 4]: 14.7 ± 1.5 h |
| C=C(CC[C@@H](C(=O)O)[C@H]1[C@H](O)C[C@@]2(C)C3=CC[C@H]4C(C)(C)[C@@H](O)CC[C@]4(C)C3=CC[C@]12C)C(C)C [Dehydrotumulosic acid, dehydrotumulosic acid] | −2.3 | 3.8 | 1.6 | 5.5 | 3.0 | −12.8 | 3.2 | −4.3 | 10.2 | 75.1 | 62.4 | 43.5 ± 12 | 43.4 ± 12 | 3.8 ± 0.6 | 5 ± 1.8 | 10.4 ± 2.2 | 175 ± 37.2 | 142 ± 15.8 | 10.1 ± 3 | 19 ± 12.2 | MRT decreased [2]: 27.8%; Tmax [2, 3]: 1.8 ± 1.6 h; Tmax [2, 4]: 4 ± 1.8 h; MRT last [2, 4]: 14.4 ± 2.7 h |
| O=C(/C=C/c1ccc(O[C@@H]2O[C@H](CO)[C@@H](O)[C@H](O)[C@H]2O)cc1)c1ccc(O)cc1O [Isoliquiritin, isoliquiritin] | −12.7 | 1.3 | 11.0 | 3.9 | 4.0 | −6.8 | −1.1 | −3.0 | −2.1 | 65.8 | 31.1 | 56.9 ± 10.8 | 51.9 ± 7.8 | 4.2 ± 0.8 | 13.1 ± 7.5 | 15.5 ± 1.8 | 166 ± 10.5 | 108 ± 21.2 | 6.1 ± 1.8 | 9.2 ± 4.4 | MRT decreased [2]: 21.7%; Tmax ([2]; Normal group): 0.6 ± 0.1 h; MRT last [2, 4]: 19.8 ± 1.7 h |
